Key:
[1] = target: T1, AgAOctR (Anopheles octopamine receptor isoform A), cloned α-like OctR (Anopheles gambiae, UniProt Q7PRZ8); assay: OctR activation: change in intracellular calcium (CALCIUM 6QR dye, FlexStation 3) in stably transfected mammalian cells; format: cell-based; details: agonist
T1 construct: Gq calcium readout
T1 sequence (Q7PRZ8 1-592): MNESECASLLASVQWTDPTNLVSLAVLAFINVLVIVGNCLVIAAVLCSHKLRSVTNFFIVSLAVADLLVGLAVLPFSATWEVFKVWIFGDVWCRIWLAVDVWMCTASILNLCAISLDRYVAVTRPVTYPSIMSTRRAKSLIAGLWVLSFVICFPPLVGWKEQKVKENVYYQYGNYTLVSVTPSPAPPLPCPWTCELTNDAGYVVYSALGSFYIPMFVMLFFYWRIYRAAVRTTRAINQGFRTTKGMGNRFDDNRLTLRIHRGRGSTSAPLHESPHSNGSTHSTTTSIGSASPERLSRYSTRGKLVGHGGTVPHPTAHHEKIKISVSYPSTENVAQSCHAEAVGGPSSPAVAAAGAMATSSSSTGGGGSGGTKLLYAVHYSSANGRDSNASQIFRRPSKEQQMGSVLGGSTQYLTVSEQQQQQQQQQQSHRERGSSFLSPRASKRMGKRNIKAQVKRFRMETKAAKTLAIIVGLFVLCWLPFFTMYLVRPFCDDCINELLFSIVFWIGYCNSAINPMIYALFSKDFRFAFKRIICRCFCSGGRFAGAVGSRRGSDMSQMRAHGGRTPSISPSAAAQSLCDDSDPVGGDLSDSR
In short: (§1)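 Fluorescence from the intracellular calcium dye CALCIUM 6QR was recorded over time after receptor activation.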

[2] = target: T2, PaOctR (Periplaneta octopamine receptor), cloned α-like OctR (Periplaneta americana, UniProt Q7YWB7); assay: as above; format: cell-based; details: agonist
T2 construct: Gq calcium readout
T2 sequence (Q7YWB7 1-628): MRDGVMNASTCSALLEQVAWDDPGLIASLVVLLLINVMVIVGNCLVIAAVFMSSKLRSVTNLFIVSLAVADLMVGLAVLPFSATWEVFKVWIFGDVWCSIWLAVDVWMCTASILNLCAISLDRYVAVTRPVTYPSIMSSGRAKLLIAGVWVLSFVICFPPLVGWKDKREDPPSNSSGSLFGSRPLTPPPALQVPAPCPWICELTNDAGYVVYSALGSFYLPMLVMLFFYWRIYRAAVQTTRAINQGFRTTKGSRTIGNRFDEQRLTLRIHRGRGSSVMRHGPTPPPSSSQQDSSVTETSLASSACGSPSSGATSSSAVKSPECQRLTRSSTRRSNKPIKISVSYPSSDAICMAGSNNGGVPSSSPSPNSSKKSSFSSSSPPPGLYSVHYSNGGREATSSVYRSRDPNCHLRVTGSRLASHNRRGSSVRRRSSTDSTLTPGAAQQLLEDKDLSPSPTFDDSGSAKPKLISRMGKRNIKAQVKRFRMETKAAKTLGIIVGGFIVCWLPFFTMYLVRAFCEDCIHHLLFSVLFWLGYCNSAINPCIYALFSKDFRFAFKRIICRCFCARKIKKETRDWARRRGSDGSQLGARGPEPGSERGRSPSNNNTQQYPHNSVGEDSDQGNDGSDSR
In short: as §1

## C=C(c1cnc[nH]1)c1cccc(C)c1C [AZ0027]
[1]
  EC50: 13 ± 4.6 pM
[2]
  EC50: 440 ± 230 pM
